Target: T1, FLuc-C-HiBiT (Photinus pyralis, UniProt P08659)
T1 construct: firefly luciferase with C-terminal HiBiT tag, E. coli expressed
Assay: biochemical
Conditions: enzyme activity, 10 uM ATP; read-out: IC50 or SDR50 (mM) / FLuc E

T1 sequence (P08659 whole entry, looked up): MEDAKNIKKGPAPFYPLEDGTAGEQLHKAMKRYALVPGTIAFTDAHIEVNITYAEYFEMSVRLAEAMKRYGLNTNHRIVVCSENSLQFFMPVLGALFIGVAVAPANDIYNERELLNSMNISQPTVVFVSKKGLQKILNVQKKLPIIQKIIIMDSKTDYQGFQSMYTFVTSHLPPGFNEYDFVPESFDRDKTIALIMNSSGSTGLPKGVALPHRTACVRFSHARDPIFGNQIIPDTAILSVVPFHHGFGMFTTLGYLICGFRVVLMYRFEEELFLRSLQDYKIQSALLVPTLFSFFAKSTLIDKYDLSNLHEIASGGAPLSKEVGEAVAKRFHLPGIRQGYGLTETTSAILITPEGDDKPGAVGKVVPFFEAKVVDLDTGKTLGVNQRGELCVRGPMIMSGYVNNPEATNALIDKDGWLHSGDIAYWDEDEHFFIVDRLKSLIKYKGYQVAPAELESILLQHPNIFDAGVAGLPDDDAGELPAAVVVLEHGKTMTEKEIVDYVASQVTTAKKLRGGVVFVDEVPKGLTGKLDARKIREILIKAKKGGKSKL

SMILES	IC50 [µM]
COc1cccc(-c2csc(CN3CCCC(C)(NC(C)=O)C3)c2)c1 (stereo not drawn) [NCGC00410342-01]	20.2
COc1ccc(C(=O)Nc2cc(C(C)C)c(O)c([S+](=O)([O-])c3ccc(Cl)cc3)c2C)cc1 [NCGC00102536-01]	12.4
CC(=O)c1ccc(NC(=O)CCc2c(C)nc3cc(-c4ccc(Cl)cc4)nn3c2C)cc1 [NCGC00110026-01]	7.85
Cc1nn(-c2ccc(C(C)C)cc2)c(C)c1[C@@H]1C=C[C@@H](NC(=O)NC(C)C)C1 [NCGC00399949-01]	18
O=C(O)c1ccc(-c2noc(-c3cccc(Cl)c3)n2)cc1 [NCGC00168100-03]	7
C=CCCC(=O)N1CCOc2c(O)cc(-c3nc4ccccc4s3)cc2C1 [NCGC00429409-01]	> 30
Clc1ccc(OCc2nc3ccccc3n2Cc2ccccc2)c(Cl)c1 [NCGC00098959-01]	7
Cc1ccc(NC(=O)Nc2cccn3nc(C)nc23)cc1 [NCGC00470444-01]	11.1
O=C1CC(c2ccccc2)N(C(=O)CNC(=O)Nc2ccc3c(c2)OCCO3)CCCCCN1 (stereo not drawn) [NCGC00465553-01]	17.6
Cc1cn2nc(C(=O)NCCc3ccccc3)cc2c(=O)[nH]1 [NCGC00453944-01]	11.1
COCCNc1cc(-c2ccc3ccccc3n2)c2cc[nH]c2n1 [NCGC00440476-01]	12.4
Cc1cc(C)n(CCC(=O)N2CCC(Cc3noc(C4CC4)n3)C2)n1 (stereo not drawn) [NCGC00443208-01]	> 30
O=C(O)CCC1CCN(c2cc(NC3CC3)ncn2)CC1 [NCGC00432803-01]	3.13
COc1ccc(-c2nc3cc(F)ccc3s2)cc1OC [NCGC00344018-01]	1.57
COc1ccccc1CN1CCc2nc(C(=O)Nc3ccccc3)oc2CC1 [NCGC00413298-01]	16.1
COc1ccccc1NC(=O)CN1C(=O)CC(c2ccc(C)c(C)c2)=Nc2ccccc21 [NCGC00130405-01]	12.4
O=C1N(c2ccccc2)C[C@H]2CN(Cc3ccccc3)CCN12 [NCGC00393129-01]	20.2
Cc1ccc(CN2C(=O)OC(c3cccc(NC(=O)c4ccc(C)cc4)c3)C2C(=O)NCC(C)C)cc1 (stereo not drawn) [NCGC00475004-01]	8.81
Cn1ccnc1C(O)c1cc2n(n1)CCN(c1ncnc3[nH]cnc13)C2 (stereo not drawn) [NCGC00422809-01]	> 30
COc1cccc(Nc2cc3c(cn2)CN(C(C)=O)CCN3)c1 [NCGC00411096-01]	9.04
CC(=O)c1cccc(-c2nc3ccccc3s2)c1 [NCGC00167620-01]	9.89

SMILES	IC50 [µM]
COc1ccc(C(=O)Nc2noc3ccccc23)cc1 [NCGC00115156-01]	0.881
Cc1cc(C)cc(C(=O)NCCn2ccn3nc(-c4ccc(C)cc4C)cc3c2=O)c1 [NCGC00456988-01]	7
CN1CCN(c2ccc(-c3cc4c(ccn4C)c(C(=O)NCCC(N)=O)n3)cc2)CC1 [NCGC00411733-01]	14.3
O=C(O)c1ccc(-c2nnc3ccc(NC(=O)C4CCC4)cn23)cc1 [NCGC00432681-01]	11.1
COc1ccc(-c2nc(-c3cccc(C(=O)O)c3)no2)cc1 [NCGC00168767-01]	0.00248
CNC(=O)c1cccc(-c2cnc(NC(=O)Cc3ccccc3)c3c2CCO3)c1 [NCGC00412711-01]	3.21
COc1ccc2cc(C3CN(C(=O)c4cccc(CO)c4)CCO3)ccc2c1 (stereo not drawn) [NCGC00430133-01]	2.48
CCCC(=O)Nc1cnc(-c2ccc(C)cc2)nc1 [NCGC00432897-01]	3.51
CCN1c2cc(C(=O)Nc3ccc4c(c3)OCCO4)ccc2C(=O)N2CCCCC21 (stereo not drawn) [NCGC00452503-01]	9.89
O=C1c2cnc(-c3ccc(Cl)cc3)nc2OCCN1CC1CC1 [NCGC00413489-01]	4.04
Cc1ccc(CSc2nc3cccnc3n2Cc2ccc(C(=O)NCc3ccco3)cc2)cc1 [NCGC00123842-01]	0.624
Cc1ccc(C(=O)Nc2ccc3oc(-c4cccnc4)nc3c2)c(Cl)c1 [NCGC00099674-01]	1.4
Cc1ccc(C(=O)Nc2cccc(C(=O)O)c2)cc1[S+](=O)([O-])N1CCCC1 [NCGC00098466-01]	0.0881
O=C(O)c1ccc(-c2noc(-c3cccc(C(F)(F)F)c3)n2)cc1 [NCGC00168106-02]	8.81
CCN1c2cc(C(=O)Nc3ccc(N(C)C)cc3)ccc2C(=O)N2CCCCC21 (stereo not drawn) [NCGC00452497-01]	12.4
Cc1ccc(-c2cccc(COc3cnc4c(ccn4CC(=O)O)c3)c2)cc1C [NCGC00418247-01]	18
O=c1[nH]nc2n1CCCCC2 [NCGC00019120-02]	> 30
COc1cccc(-c2noc(-c3ccc(N4CCCC(CO)C4)nc3)n2)c1OC (stereo not drawn) [NCGC00425266-01]	2.79
O=C(O)c1cccc(-c2noc(-c3ccc(F)cc3)n2)c1 [NCGC00168761-01]	0.00442
COc1ccc2cc(-c3nc4ccc(C(=O)O)cc4[nH]3)c(=O)oc2c1 [NCGC00138156-01]	0.0157
COc1cccc(-c2noc(Nc3ccc4c(c3)OCO4)n2)c1 [NCGC00422370-01]	6.24

SMILES	IC50 [µM]
CNc1ccc(-c2nc3ccccc3s2)cc1 [NCGC00165760-02]	0.0785
c1cncc(Nc2cc3c(cn2)CN(Cc2cc[nH]n2)CCN3)c1 [NCGC00411048-01]	18
CCCCCSc1nnc(-c2ccc(Br)cc2)o1 [NCGC00098355-01]	> 30
CC1CCN(c2ncnc3c2cnn3-c2ccccc2)CC1 [NCGC00081403-02]	6.24
COc1ccc(-c2nc3ccccc3s2)cc1NC(=O)c1cc2ccccc2o1 [NCGC00102103-01]	> 30
CC1(NC(=O)C2CC2)CN(Cc2nc(-c3cccc(F)c3)cs2)C1 [NCGC00410350-01]	20.2
COc1ccccc1OCc1nc2ccccc2n1Cc1ccccc1 [NCGC00141136-01]	14
Nc1nc(=O)c2[nH]c(=O)n(C3CC(O)C(CO)O3)c2[nH]1 (stereo not drawn) [NCGC00390462-01]	> 30
CN(C)c1ccc(-c2noc([C@@H]3CCCN3Cc3cnc4ccccc4c3)n2)cn1 [NCGC00394599-01]	> 30
COc1ccc(-c2cc3c(=O)n(CCNC(=O)c4ccco4)ccn3n2)cc1 [NCGC00456922-01]	9.89
O=C(Nc1cccc(-c2ccc(N3CCOCC3)nn2)c1)Nc1cccc(Cl)c1F [NCGC00427620-01]	5.56
CN(C)c1cccc(C(=O)NC2CCN(c3cc(-c4ccc(Cl)cc4)n[nH]3)CC2)c1 [NCGC00437038-01]	6.24
COc1ccc(-c2cnc(Nc3cccc(N[S+](C)(=O)[O-])c3)c3c2CCO3)cn1 [NCGC00412697-01]	18
O=[S+]([O-])(c1cccc(Cl)c1)n1c(/C=C/c2ccccc2Cl)nc2ccccc21 [NCGC00139448-01]	0.176
CC(C)CCNC(=O)c1ccc2c(c1)nc1n2CCCCC1 [NCGC00133608-01]	9.89
CCNC(=O)N[C@@H]1C=C[C@@H](c2c(C)nn(-c3ccc(F)cc3)c2C)C1 [NCGC00392634-01]	20.2
COc1ccc(-c2noc(Nc3ccc(C)c(C)c3)n2)cc1 [NCGC00422330-01]	9.89
Cc1ccc(C2Cn3nnc(C(=O)N4CCC(C(=O)NC5CC5)CC4)c3CO2)cc1 (stereo not drawn) [NCGC00449485-01]	7.85
O=C1Nc2ccc(C(=O)c3ccco3)cc2C1=Cc1cc(Cl)c(O)c(Cl)c1 [NCGC00242150-05]	11.1
CC(C)c1nc(C2Cc3ccccc3N2C(=O)NC2CCCC2)no1 (stereo not drawn) [NCGC00471499-01]	14
COc1cccc(-n2cnc3c(N/N=C/c4ccncc4)ncnc32)c1 [NCGC00242129-02]	17.6

— publication PMC12064818, “A general assay platform to study protein pharmacology using ligand-dependent structural dynamics” (Nature Communications, 2025)
